According to a compilation of properties of binary mixtures (doi:10.1016/j.molliq.2017.03.027):

Experiment: xn = mol fraction of the nth substance listed
Conditions: 100 kPa

CCCC[n+]1ccn(C)c1.O=S(=O)([N-]S(=O)(=O)C(F)(F)F)C(F)(F)F + CS(C)=O
x2 = 0
Conditions	speed of sound [m/s]	viscosity [mPa·s]
298.15 K	1227.5	49.6
308.15 K	1205.5	33.25
313.15 K	1193.5	28
323.15 K	1171.3	20.39

CCCC[n+]1ccn(C)c1.O=S(=O)([N-]S(=O)(=O)C(F)(F)F)C(F)(F)F + CO
Conditions	speed of sound [m/s]	viscosity [mPa·s]
298.15 K, x2 = 0	1227.5	49.6
298.15 K, x2 = 0.2068	1218.3	34.37
298.15 K, x2 = 0.295	1213.6	28.65
298.15 K, x2 = 0.4004	1208.6	22.3
298.15 K, x2 = 0.4923	1202	17.55
298.15 K, x2 = 0.5956	1191.3	12.55
298.15 K, x2 = 0.7947	1159.2	5.11
298.15 K, x2 = 0.8978	1134.4	1.7
303.15 K, x2 = 0.2068	1206.7	28.28
303.15 K, x2 = 0.295	1202.3	23.6
303.15 K, x2 = 0.4923	1190.3	14.6
303.15 K, x2 = 0.5956	1180	10.52
303.15 K, x2 = 0.7056	1164.1	6.79
303.15 K, x2 = 0.7947	1146.7	4.38
303.15 K, x2 = 0.8978	1121.2	1.55
308.15 K, x2 = 0	1205.5	33.25
308.15 K, x2 = 0.0986	1201.6	28.87
308.15 K, x2 = 0.2068	1196	23.61
308.15 K, x2 = 0.295	1192.5	19.98
308.15 K, x2 = 0.4004	1186.7	15.74
308.15 K, x2 = 0.4923	1179.1	12.56
308.15 K, x2 = 0.5956	1169.2	9.2
308.15 K, x2 = 0.7056	1152.6	5.97
308.15 K, x2 = 0.7947	1134.5	3.97
308.15 K, x2 = 0.8978	1108.1	1.42
313.15 K, x2 = 0	1193.5	28
313.15 K, x2 = 0.0986	1190.8	24.53
313.15 K, x2 = 0.2068	1184.4	20.1
313.15 K, x2 = 0.295	1180.8	17.14
313.15 K, x2 = 0.4004	1175.5	13.55
313.15 K, x2 = 0.4923	1168	10.82
313.15 K, x2 = 0.5956	1158.3	8.03
313.15 K, x2 = 0.7056	1141.2	5.28
313.15 K, x2 = 0.7947	1122.6	3.54
313.15 K, x2 = 0.8978	1095.2	1.31
318.15 K, x2 = 0	1183.5	23.75
318.15 K, x2 = 0.2068	1173.6	17.22
318.15 K, x2 = 0.4004	1164.9	11.7
318.15 K, x2 = 0.5956	1147.7	7.01
318.15 K, x2 = 0.7947	1110.5	3.13
318.15 K, x2 = 0.8978	1082.2	1.21
323.15 K, x2 = 0	1171.3	20.39
323.15 K, x2 = 0.0986	1169.3	18.1
323.15 K, x2 = 0.2068	1162.4	14.96
323.15 K, x2 = 0.295	1160	12.89
323.15 K, x2 = 0.4004	1154.4	10.31
323.15 K, x2 = 0.4923	1146.6	8.33
323.15 K, x2 = 0.5956	1137.2	6.21
323.15 K, x2 = 0.7947	1098.7	2.81
